Measured values from publication PMC9627161 (Frontiers in Pharmacology, 2022).
Peptide text beside a SMILES is read from it.

Columns and labels:
Mpro = Mpro (Severe acute respiratory syndrome coronavirus 2, UniProt P0DTD1); test: MST binding to Mpro protein; set-up: species or system SARS-CoV-2; conditions: mean ± SD (n = 3)
SARS-CoV-2 pseudovirus = conditions: 1 h, 5 μM
RBD = RBD (Severe acute respiratory syndrome coronavirus 2, UniProt P0DTC2); test: MST binding to RBD protein; set-up: species or system SARS-CoV-2; conditions: mean ± SD (n = 3)
Description: To detect the interaction between the peptides and RBD/Mpro, the MST experiments were performed using the Monolith NT.115 instrument. RBD and Mpro proteins were labeled with the Lys labeling kit, respectively. In the assay, the final concentration of the labeled protein was 50 nM, and the peptides were gradient-diluted in 1:1 dilution and starting from 12.5 μM. After brief incubation in MST buffer, the samples were loaded into MST-standard glass capillaries. All the measurements were performed in triplicate using automatically assigned 50% MST power and 20% LED power.

SMILES | Mpro, Kd (Mpro) | Mpro, Kd (Mpro; listed as peptide-5) | inhibition against pseudotyped SARS-CoV-2 virus (SARS-CoV-2 pseudovirus) | RBD, Kd (RBD) | RBD, Kd (RBD; listed as peptide-21)
CC[C@H](C)[C@H](N)C(=O)N[C@@H](CCC(=O)O)C(=O)N[C@@H](CCC(=O)O)C(=O)N[C@@H](CCC(N)=O)C(=O)N[C@@H](C)C(=O)N[C@@H](CCCCN)C(=O)N[C@H](C(=O)N[C@@H](Cc1ccccc1)C(=O)N[C@@H](CC(C)C)C(=O)N[C@@H](CC(=O)O)C(=O)N[C@@H](CCCCN)C(=O)N[C@@H](Cc1ccccc1)C(=O)N[C@@H](CC(N)=O)C(=O)N[C@@H](Cc1c[nH]cn1)C(=O)N[C@@H](CCC(=O)O)C(=O)N[C@@H](CCCCN)C(=O)N[C@@H](CCC(=O)O)C(=O)N[C@@H](CC(=O)O)C(=O)N[C@@H](CC(C)C)C(=O)N[C@@H](CCC(=O)O)C(=O)N[C@@H](Cc1ccc(O)cc1)C(=O)N[C@@H](CCC(N)=O)C(=O)N[C@@H](CO)C(=O)N[C@@H](CO)C(=O)N[C@@H](CC(C)C)C(=O)N[C@@H](C)C(=O)N[C@@H](CO)C(=O)N[C@@H](Cc1c[nH]c2ccccc12)C(=O)N[C@@H](CC(N)=O)C(=O)N[C@@H](Cc1ccc(O)cc1)C(=O)N[C@@H](CC(N)=O)C(=O)N[C@H](C(=O)N[C@@H](CC(N)=O)C(=O)N[C@H](C(=O)N[C@H](C(=O)O)[C@@H](C)O)[C@@H](C)CC)[C@@H](C)O)[C@@H](C)O [Peptide-5] (H-IEEQAKTFLDKFNHEKEDLEYQSSLASWNYNTNIT-OH; N-terminus and C-terminus assumed) | no binding | no binding affinity | about 40% |  | 
CC(=O)N[C@@H](CO)C(=O)N[C@H](C(=O)N[C@@H](CO)C(=O)N[C@@H](C)C(=O)N[C@H](C(=O)N[C@@H](CC(C)C)C(=O)N[C@@H](CCC(N)=O)C(=O)N[C@@H](CO)C(=O)NCC(=O)N[C@@H](Cc1ccccc1)C(=O)N[C@@H](CCCNC(=N)N)C(=O)N[C@@H](CCCCN)C(=O)N[C@@H](Cc1ccccc1)C(N)=O)C(C)C)[C@@H](C)O [Peptide-21] |  |  | < 20% | no binding | no binding affinity
